The source of these data is US8148391B2 (Cephalon, Inc., priority 2006, dated 2012).

Where two headings read alike, the source gives them in different places. Some results are limits rather than exact numbers.

Assay [1] concerns the target T1, c-Met (cytoplasmic domain) (Homo sapiens, UniProt P08581).
T1 construct: 10 ng/mL c-Met (cytoplasmic domain, Invitrogen Corporation #PV3143); purchased Invitrogen Corporation PV3143
Nature of the assay: c-Met Kinase Assay (same methods as for ALK, with modifications). The format is biochemical. In outline:
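Wells were coated with 10 μg/mL phospholipase C-γ substrate in TBS, and reactions were started with 10 ng/mL c-Met cytoplasmic domain and run at 37° C for 15 minutes. Phosphorylated product was detected with Eu-N1-labeled PT66 antibody. IC50 values came from sigmoidal variable-slope fits of percent inhibition versus log compound concentration.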

In assay [2] the target is T2, baculovirus-expressed ALK (Homo sapiens, UniProt Q9UM73).
T2 construct: host or cells: baculovirus expression system
Kind of assay: ALK Kinase Assay (ELISA-type, time-resolved fluorescence). The format is biochemical. Put shortly:
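Substrate coating: phospholipase C-γ, 10 μg/mL in TBS. Kinase step: 30 ng/ml ALK, 15 min, 37° C. Detection and analysis: Eu-N1 PT66 antibody, with IC50 fitted as a sigmoidal variable-slope dose-response curve.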

The mark [3] stands for this setting: c-Met kinase inhibition, 1 μM ATP (Km level), read-out: cMet Activity.
Setting [4] is: ALK kinase inhibition, 1 μM ATP (Km level), read-out: ALK Activity.
The mark [5] stands for this setting: 1 μM ATP (Km level), read-out: cMet Activity (c-Met Kinase Inhibition, IC50).
[6] abbreviates: 1 μM ATP (Km level), read-out: ALK Activity (ALK Kinase Inhibition, IC50).
Setting [7] is: c-Met kinase inhibition, 1 μM ATP, read-out: cMet Activity.
[8] abbreviates: ALK kinase inhibition, 1 μM ATP, read-out: ALK Activity.
Setting [9] is: 1 μM ATP (Km level), 10 ng/mL c-Met, read-out: cMet Activity (c-Met kinase inhibition, IC50 class).
Where [10] appears, read: 1 μM ATP (Km level), 30 ng/ml ALK, 37° C., 15 minutes, read-out: ALK Activity (ALK kinase inhibition, IC50 class).

T2 sequence (Q9UM73 19-1620): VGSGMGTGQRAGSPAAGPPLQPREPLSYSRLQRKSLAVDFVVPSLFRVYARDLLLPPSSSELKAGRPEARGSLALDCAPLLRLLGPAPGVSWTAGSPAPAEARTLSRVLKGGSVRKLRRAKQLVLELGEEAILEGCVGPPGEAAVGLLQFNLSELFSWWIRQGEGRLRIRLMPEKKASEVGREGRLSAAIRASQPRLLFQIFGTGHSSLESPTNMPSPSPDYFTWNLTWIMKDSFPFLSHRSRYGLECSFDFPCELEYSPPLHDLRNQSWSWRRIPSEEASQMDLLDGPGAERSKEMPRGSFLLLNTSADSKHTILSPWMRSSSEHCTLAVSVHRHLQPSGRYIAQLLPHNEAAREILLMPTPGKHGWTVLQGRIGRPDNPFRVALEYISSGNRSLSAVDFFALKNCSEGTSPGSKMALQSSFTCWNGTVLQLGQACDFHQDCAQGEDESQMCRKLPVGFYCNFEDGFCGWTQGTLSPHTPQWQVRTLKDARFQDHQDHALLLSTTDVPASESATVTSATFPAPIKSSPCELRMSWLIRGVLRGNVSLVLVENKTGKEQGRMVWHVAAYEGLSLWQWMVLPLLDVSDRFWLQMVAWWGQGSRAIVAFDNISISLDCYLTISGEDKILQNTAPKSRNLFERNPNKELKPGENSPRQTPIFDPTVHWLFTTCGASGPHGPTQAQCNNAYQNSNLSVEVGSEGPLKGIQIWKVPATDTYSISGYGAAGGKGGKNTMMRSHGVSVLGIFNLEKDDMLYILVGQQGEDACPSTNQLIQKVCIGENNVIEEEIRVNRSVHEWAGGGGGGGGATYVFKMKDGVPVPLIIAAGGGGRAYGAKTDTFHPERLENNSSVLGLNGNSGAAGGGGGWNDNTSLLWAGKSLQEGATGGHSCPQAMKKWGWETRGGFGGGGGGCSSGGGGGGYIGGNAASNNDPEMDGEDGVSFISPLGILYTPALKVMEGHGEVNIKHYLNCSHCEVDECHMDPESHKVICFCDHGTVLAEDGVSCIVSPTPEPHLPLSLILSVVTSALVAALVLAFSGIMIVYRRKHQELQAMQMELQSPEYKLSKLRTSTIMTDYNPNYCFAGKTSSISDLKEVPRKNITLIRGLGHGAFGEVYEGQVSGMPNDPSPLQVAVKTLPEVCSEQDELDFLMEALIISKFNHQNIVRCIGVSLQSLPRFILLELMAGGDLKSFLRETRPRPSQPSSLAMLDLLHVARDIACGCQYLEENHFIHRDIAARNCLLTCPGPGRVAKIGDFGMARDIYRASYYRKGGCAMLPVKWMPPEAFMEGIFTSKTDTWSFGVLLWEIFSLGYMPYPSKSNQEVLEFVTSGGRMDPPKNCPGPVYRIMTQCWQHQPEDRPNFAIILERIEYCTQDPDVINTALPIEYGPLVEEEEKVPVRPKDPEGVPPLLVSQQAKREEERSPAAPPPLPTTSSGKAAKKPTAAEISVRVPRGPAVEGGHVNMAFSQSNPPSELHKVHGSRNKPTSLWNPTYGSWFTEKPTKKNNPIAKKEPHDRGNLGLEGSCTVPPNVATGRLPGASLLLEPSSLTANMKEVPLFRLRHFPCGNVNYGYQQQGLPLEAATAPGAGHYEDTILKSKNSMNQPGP
T1 sequence (P08581 956-1390 limits assumed): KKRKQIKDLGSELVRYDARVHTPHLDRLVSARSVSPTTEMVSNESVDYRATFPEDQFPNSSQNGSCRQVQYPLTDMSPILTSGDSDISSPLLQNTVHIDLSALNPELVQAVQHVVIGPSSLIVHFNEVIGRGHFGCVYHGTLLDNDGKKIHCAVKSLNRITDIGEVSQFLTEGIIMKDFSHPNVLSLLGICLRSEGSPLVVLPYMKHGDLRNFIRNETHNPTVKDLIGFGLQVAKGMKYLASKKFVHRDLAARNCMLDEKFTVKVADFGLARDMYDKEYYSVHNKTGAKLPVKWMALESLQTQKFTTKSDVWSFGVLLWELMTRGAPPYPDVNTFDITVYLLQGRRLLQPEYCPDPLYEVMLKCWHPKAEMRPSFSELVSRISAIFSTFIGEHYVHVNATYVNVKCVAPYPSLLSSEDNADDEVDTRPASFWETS

In the case of `CNC(=O)c1ccccc1Nc1nc(Nc2ccc3c(c2)N(C)CCN(S(C)(=O)=O)C3)ncc1Cl` [Example 483, 2-[5-Chloro-2-(4-methanesulfonyl-1-methyl-2,3,4,5-tetrahydro-1H-benzo[e][1,4]diazepin-8-ylamino)-pyrimidin-4-ylamino]-N-methyl-benzamide], the IC50 in assay [1] (setting [3]) and in assay [2] (setting [4]) was below 100 nM in each case.

Regarding `CCN1CCc2cc(Nc3ncc(Cl)c(Nc4ccc(N5CCN(C)CC5)cc4OC)n3)c(OC)cc2CC1=O` [Example 772, 7-{5-Chloro-4-[2-methoxy-4-(4-methyl-piperazin-1-yl)-phenylamino]-pyrimidin-2-ylamino}-3-ethyl-8-methoxy-1,3,4,5-tetrahydro-benzo[d]azepin-2-one], the IC50 in assay [1] (setting [5]) was above 10000 nM; in assay [2] (setting [6]) it was below 100 nM.

Consider `CNC(=O)c1cc(F)ccc1Nc1nc(Nc2ccc3c(c2)CCOC(=O)N3C)ncc1Cl` [Example 1752, 2-[5-Chloro-2-(5-methyl-6-oxo-5,6,8,9-tetrahydro-7-oxa-5-aza-benzocyclohepten-2-ylamino)-pyrimidin-4-ylamino]-5-fluoro-N-methyl-benzamide], for which the IC50 in assay [1] (setting [7]) and in assay [2] (setting [8]) was below 100 nM in each case.

For the molecule `COc1cc2c(cc1Nc1ncc(Cl)c(Nc3ccc(OC)c4c3C(=O)N(C)C4)n1)CCN(CC(=O)N(C)C)CC2` [Example 937, 2-{7-[5-Chloro-4-(7-methoxy-2-methyl-3-oxo-2,3-dihydro-1H-isoindol-4-ylamino)-pyrimidin-2-ylamino]-8-methoxy-1,2,4,5-tetrahydro-3-benzazepin-3-yl}-N,N-dimethyl-acetamide], the IC50 in assay [1] (setting [5]) was above 10000 nM; in assay [2] (setting [6]), below 100 nM.

In the case of `NC(=O)C1C2C=CC(C2)C1Nc1nc(Nc2ccc3c(c2)CCN(CC(O)C(F)(F)F)CC3)ncc1Cl` (mixture of isomers) [Example 334, (2-exo, 3-exo)-3-{5-Chloro-2-[3-((R)-3,3,3-trifluoro-2-hydroxy-propyl)-2,3,4,5-tetrahydro-1H-benzo[d]azepin-7-ylamino]-pyrimidin-4-ylamino}-bicyclo[2.2.1]hept-5-ene-2-carboxylic acid amide], the IC50 was 100 to 1000 nM in assay [1] (setting [3]) and below 100 nM in assay [2] (setting [4]).

As for `CCN1CC(=O)N(C)c2cc(Nc3ncc(Cl)c(N[C@@H]4CCCC[C@H]4NS(C)(=O)=O)n3)c(OC)cc2C1` [Example 745, N-[(1R,2R)-2-[5-Chloro-2-(4-ethyl-7-methoxy-1-methyl-2-oxo-2,3,4,5-tetrahydro-1H-benzo[e][1,4]diazepin-8-ylamino)-pyrimidin-4-ylamino]-cyclohexyl}-methanesulfonamide], the IC50 was above 10000 nM in assay [1] (setting [5]) and 100 to 1000 nM in assay [2] (setting [6]).

On to `COc1cc2c(cc1Nc1ncc(Cl)c(Nc3ccccc3-n3cccn3)n1)CCC(NCCO)CC2` (stereo not shown) [Example 1091, 2-{2-[5-Chloro-4-(2-pyrazol-1-yl-phenylamino)-pyrimidin-2-ylamino]-3-methoxy-6,7,8,9-tetrahydro-5H-benzocyclohepten-7-ylamino}-ethanol], for which the IC50 in assay [1] (setting [9]) is 1000 to 10000 nM; in assay [2] (setting [10]), below 100 nM.

`CCCN1CCc2cc(Nc3ncc(Cl)c(N[C@H]4[C@@H](C(N)=O)[C@@H]5C=C[C@H]4C5)n3)c(OC)cc2CC1` [Example 774, (1S,2S,3R,4R)-3-[5-Chloro-2-(8-methoxy-3-propyl-2,3,4,5-tetrahydro-1H-benzo[d]azepin-7-ylamino)-pyrimidin-4-ylamino]-bicyclo[2.2.1]hept-5-ene-2-carboxylic acid amide]: the IC50 in assay [1] (setting [5]) is above 10000 nM; in assay [2] (setting [6]) it was below 100 nM.

Regarding `O=C1CCCc2ccc(Nc3ncc(Cl)c(Nc4c(F)cccc4OCC4CCOC4)n3)cc2N1` (stereo not shown) [Example 1276, 8-{5-Chloro-4-[2-fluoro-6-(tetrahydro-furan-3-ylmethoxy)-phenylamino]-pyrimidin-2-ylamino}-1,3,4,5-tetrahydro-1-benzazepin-2-one], the IC50 in assay [1] (setting [9]) and in assay [2] (setting [10]) was 100 to 1000 nM throughout.

Take `CNC(=O)c1cccc(F)c1Nc1nc(Nc2ccc3c(c2)CCN(CCOC)CC3)ncc1Br` [Example 1471, 2-{5-Bromo-2-[3-(2-methoxy-ethyl)-2,3,4,5-tetrahydro-1H-benzo[d]azepin-7-ylamino]-pyrimidin-4-ylamino}-3-fluoro-N-methyl-benzamide]: the IC50 in assay [1] (setting [7]) and in assay [2] (setting [8]) was below 100 nM throughout.

With `COc1cc2c(cc1Nc1ncc(Cl)c(N[C@H]3[C@@H](C(N)=O)[C@@H]4C=C[C@H]3C4)n1)CCC(NCCO)CC2` (single isomer, unassigned) [Example 1097], the IC50 in assay [1] (setting [9]) was above 10000 nM; in assay [2] (setting [10]), below 100 nM.

Turning to `CNC(=O)CN1CCc2ccc(Nc3ncc(Cl)c(N[C@@H]4CCCC[C@H]4NS(C)(=O)=O)n3)cc2CC1` [Example 1374, 2-{7-[5-Chloro-4-((1R,2R)-2-methanesulfonylamino-cyclohexylamino)-pyrimidin-2-ylamino]-1,2,4,5-tetrahydro-benzo[d]azepin-3-yl}-N-methyl-acetamide], the IC50 is 100 to 1000 nM in assay [1] (setting [9]) and below 100 nM in assay [2] (setting [10]).

Consider `COc1cc2c(cc1Nc1ncc(Cl)c(N[C@@H]3CCCC[C@H]3NS(C)(=O)=O)n1)CCN(CC(=O)N1CCCC1)CC2` [Example 1160, N-((1R,2R)-2-{5-Chloro-2-[8-methoxy-3-(2-oxo-2-pyrrolidin-1-yl-ethyl)-2,3,4,5-tetrahydro-1H-benzo[d]azepin-7-ylamino]-pyrimidin-4-ylamino}-cyclohexyl)-methanesulfonamide], for which the IC50 in assay [1] (setting [9]) was above 10000 nM; in assay [2] (setting [10]) it was below 100 nM.

For the molecule `CN1C(=O)CCCc2cc(Nc3ncc(Cl)c(Nc4ccccc4C(=O)NCCC#N)n3)ccc21` [Example 871, 2-[5-Chloro-2-(1-methyl-2-oxo-2,3,4,5-tetrahydro-1H-benzo[b]azepin-7-ylamino)-pyrimidin-4-ylamino]-N-(2-cyano-ethyl)-benzamide], the IC50 in assay [1] (setting [5]) and in assay [2] (setting [6]) was below 100 nM throughout.

Consider `COc1cc2c(cc1Nc1ncc(F)c(Nc3ccc(N4CCN(C)CC4)cc3OC)n1)CCN(CCS(C)(=O)=O)CC2` [Example 805, 5-Fluoro-N*2*-[3-(2-methanesulfonyl-ethyl)-8-methoxy-2,3,4,5-tetrahydro-1H-benzo[d]azepin-7-yl]-N*4*-[2-methoxy-4-(4-methyl-piperazin-1-yl)-phenyl]-pyrimidine-2,4-diamine], for which the IC50 in assay [1] (setting [5]) is above 10000 nM; in assay [2] (setting [6]) it was below 100 nM.

Take `COc1cc(N2CCOCC2)ccc1Nc1nc(Nc2ccc3c(c2)NCCCC3(C)C)ncc1Cl` [Example 1614, 5-Chloro-N*2*-(5,5-dimethyl-2,3,4,5-tetrahydro-1H-benzo[b]azepin-8-yl)-N*4*-(2-methoxy-4-morpholin-4-yl-phenyl)-pyrimidine-2,4-diamine]: the IC50 is above 10000 nM in assay [1] (setting [7]) and 100 to 1000 nM in assay [2] (setting [8]).

As for `COc1cc2c(cc1Nc1ncc(Cl)c(N[C@H]3[C@@H](C(N)=O)[C@@H]4C=C[C@H]3C4)n1)CCN(CC(F)F)CC2` (relative stereo) [Example 763, (2-exo,3-exo)-3-{5-Chloro-2-[3-(2,2-difluoro-ethyl)-8-methoxy-2,3,4,5-tetrahydro-1H-benzo[d]azepin-7-ylamino]-pyrimidin-4-ylamino}-bicyclo[2.2.1]hept-5-ene-2-carboxylic acid amide], the IC50 in assay [1] (setting [5]) was above 10000 nM; in assay [2] (setting [6]) it was below 100 nM.
